Columns and labels:
Type in all cases: biochemical
β-secretase (BACE) [1] = biological target: T1, β-secretase (BACE) (Homo sapiens, UniProt P56817); experiment: In Vitro BACE % Inhibition Assay, (Aedens)-[…]-(Dabcyl K-amide) substrate (Example 12); settings: for % Inhibition 3 μM: 3 μM compound; for % Inhibition 3 μM / % Inhibition 10 μM: values below about 25% (including negative) within noise; for % Inhibition 10 μM: 10 μM compound
T1 construct: purchased Panvera
Method: The following reagents were used in this assay: sodium acetate, PEG8000 (Sigma), DMSO, HEPES, (Aedens)-[…]-(Dabcyl K-amide) substrate, β-secretase (BACE) (Panvera), and 96-well plate (HE microplate, Molecular Devices).
(§1) The following assay buffers were prepared and used in this assay: (1) enzyme assay buffer (0.05 M sodium acetate, pH5, 0.1% PEG8000 (w/v)), (2) substrate assay buffer (0.05 M sodium acetate, pH5), and (3) compound vehicle (30% DMSO in 50 mM HEPES, pH 7.4).
(§2) The substrate stock solution was prepared in DMSO as a 10 mg/mL solution. The substrate working solution was prepared by diluting the 10 mg/mL stock solution with substrate assay buffer to a final concentration of 300 μg/mL. The β-secretase (BACE) working solution was prepared by diluting a 0.83 mg/mL BACE stock solution with enzyme assay buffer to a final concentration of 4 μg/mL.
Test compounds were dissolved in DMSO to 10 mM. Compounds were further diluted in vehicle to various concentrations in the range of 405 μM to 4.05 μM (13.5×final compound concentration in screening plate).
The screening procedure for this assay was as follows: 15 μL of BACE working solution was pipetted into each well of a 96-well plate. To each well was then pipetted 2 μL of test compound at the selected concentration. Test compound and BACE were then mixed with a pipettor and incubated for 20 min at room temperature. To each well was then added 10 μL of the substrate working solution. The plates were then incubated for 1 hour at room temperature. The fluorescence for each well was then measured on an LJL analyst (Ex 360 nm/Em 530 nm).
The procedure for the blank (negative control) was as follows. 15 μL of assay buffer was pipetted into each well to be used as a blank control. To each well was then added 2 μL of vehicle and 10 μL of substrate working solution. The plates were then incubated for 1 hour at room temperature. The fluorescence was measured on an LJL analyst (Ex 360 nm/Em 530 nm).
The procedure for the positive control was as follows: 15 μl of BACE working solution was pipetted into each well to be used as a positive control. To each well was then pipetted 2 μL of vehicle. Vehicle and BACE were then mixed with a pipettor and incubated for 20 min at room temperature. To each well was then added 10 μL of the substrate working solution. The plates were then incubated for 1 hour at room temperature. The fluorescence (Fl) was then measured on an LJL analyst (Ex 360 nm/Em 530 nm).
For test compounds, % inhibition was determined at each concentration as follows:
% Inhibition values of less than 30% were indistinguishable from control and are listed as ≦30% in the Table below.

β-secretase (BACE) [2] = biological target: T1, β-secretase (BACE); experiment: In Vitro BACE IC50 Assay, MCA-substrate (Example 13); settings: 1 hour at room temperature
Text: The following standards are reagents were used in this assay: Sodium Citrate trisodium salt dihydrate (Sigma), Citric Acid monohydrate (Merck), PEG8000 (Sigma), MCA-substrate (Bachem), β-secretase (BACE) (Panvera), 96-well black plate (Costar (Elscolab)), StatVal (Bachem). The standard assay buffer solution prepared and used in this assay is as follows: 0.05 M, pH 5.0 mixture of sodium citrate trisodium salt dihydrate (9.56 g), citric acid monohydrate (3.68 g) and PEG8000 (0.50 g). The MCA-substrate stock solution was prepared by mixing 10 mg MCA-substrate with 5 mL DMSO for a final solution concentration of 2.0 mg/mL. […]
Briefly, the procedure for this BACE IC50 assay was as follows. […] Each well was mixed for a few seconds and the T0 measured with a Fluoroscan Ex320/Em405. The plates were then incubated for 1 hour at room temperature and the T60 measured with the Fluoroscan Ex 320 nm/Em 405 nm.
The procedure for the blank (reference well) was as follows. […] The T0 was measured with the Fluoroscan Ex 320 nm/Em 405 nm, the plate was incubated for 1 hour at room temperature and the T60 was then measured with the Fluoroscan Ex 320 nm/Em 405 nm.
The procedure for the positive control was as follows. […] The T0 was measured with the Fluoroscan Ex 320 nm/Em 405 nm, the plate was incubated for 1 hour at room temperature and the T60 was then measured with the Fluoroscan Ex 320 nm/Em 405 nm. […]

β-secretase (BACE) [3] = biological target: T1, β-secretase (BACE); experiment: In Vitro BACE Assay, Ki (Example 11); settings: Ki (μM) (Example 11), FS1 substrate 50 μM, Km 24 μM
Method: The following reagents were used in this assay: sodium acetate, PEG8000 (Sigma), DMSO, HEPES, FS1 substrate [R(AedensE)[…]-(DabcylK)R], β-secretase (BACE) (Panvera), and 96-well plate (HE microplate, Molecular Devices).
as §1
as §2, with “The FS1-substrate” for “The substrate”
Test compounds were dissolved in DMSO at 10 mM.
(§3) The procedure for this assay was as follows: 15 μL of BACE working solution was pipetted into each well of a 96-well plate. To each well was then pipetted 2 μL of test compound at the selected concentration. Test compound and BACE were then mixed with a pipettor and incubated for 20 min at room temperature. To each well was then added 10 μL of the FS1 substrate working solution. The fluorescence for each well was then measured on a Polarstar fluorometer (Ex 390 nm/Em 520 nm) for 20 min at room temperature, reading fluorescence at 1 min intervals.
as §3, with “for the positive control” for “for this assay”, “well to be used as” for “well of”, “a positive control.” for “a 96-well plate.”, “of vehicle. Vehicle” for “of test compound at the selected concentration. Test compound”, “fluorescence” for “fluorescence for each well”
For test compounds, Ki inhibition was determined as follows: For each compound concentration and positive control, rate of cleavage of substrate (Vi, where i=compound concentration in μM) was determined as Δ Fluorescence/Δ time (min). Cleavage rates (Vi) were plotted as a function of inhibitor concentration in μM [I]. The Ki was then determined by fitting the following equation to the graph of [I] vs Vi Y=aVmax/(50+24*(1+X/Ki)),

T1 sequence (P56817 46-501): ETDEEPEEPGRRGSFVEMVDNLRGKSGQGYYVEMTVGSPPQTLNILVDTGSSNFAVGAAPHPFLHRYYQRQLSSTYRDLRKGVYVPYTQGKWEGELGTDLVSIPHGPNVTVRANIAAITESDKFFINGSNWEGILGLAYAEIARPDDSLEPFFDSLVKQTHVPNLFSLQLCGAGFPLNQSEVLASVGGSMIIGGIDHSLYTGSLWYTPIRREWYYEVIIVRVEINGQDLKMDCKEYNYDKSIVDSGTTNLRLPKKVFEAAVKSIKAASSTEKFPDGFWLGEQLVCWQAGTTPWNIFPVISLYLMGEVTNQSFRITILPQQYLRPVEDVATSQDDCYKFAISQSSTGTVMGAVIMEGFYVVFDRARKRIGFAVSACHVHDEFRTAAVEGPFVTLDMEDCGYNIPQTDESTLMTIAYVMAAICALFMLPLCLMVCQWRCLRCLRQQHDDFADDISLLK

Row | % Inhibition 3 μM (β-secretase (BACE) [1]) | % Inhibition 10 μM (β-secretase (BACE) [1]) | IC50 (β-secretase (BACE) [2]) | Compound | other results
1 | −8% | −16% | – | Nc1nc2ccc(Oc3ccccc3)cc2cc1CCC(=O)O [compound 502] | –
2 | −8.5% | 9% | – | CN(C(=O)CCc1cc2cc(Oc3ccccc3)ccc2nc1N)C1CCCCC1 [compound 1] | –
3 | – | – | 0.17 µM | CN(C(=O)CC[C@H]1Cc2cc(Oc3ccccc3)ccc2N=C1N)C1CCCCC1 [compound 102] | –
4 | – | – | – | CN(C(=O)CCC1Cc2cc(Oc3ccccc3)ccc2N=C1N)C1CCCCC1 (stereo not shown) [compound 101] | Ki (β-secretase (BACE) [3]): 0.1 µM; Ki (β-secretase (BACE) [1]): 0.28 µM
5 | 12% | −36% | – | CC(C)(C)OC(=O)CCc1cc2cc(Oc3ccccc3)ccc2nc1N [compound 501] | –
6 | – | – | 0.22 µM | CN(C(=O)CC[C@@H]1Cc2cc(Oc3ccccc3)ccc2N=C1N)C1CCCCC1 [compound 103] | –

Source: patent publication US7776882B2, “2-amino-3,4-dihydro-quinoline derivatives useful as inhibitors of β-secretase (BACE)” (priority 2006, dated 2010)
